Source: article PMC5303260, “Efficacy, safety and pharmacokinetics of simeprevir and TMC647055/ritonavir with or without ribavirin and JNJ-56914845 in HCV genotype 1 infection” (BMC Gastroenterology, 2017)
Where two headings read alike, the source gives them in different places. Values belong to the compound of their own block, whether it stands above or below them.

What was measured:
HCV NS5A [1] = conditions: all patients with virologic failure in Panel 4
HCV GT1, 4, 5 and 6a/6b = system: HCV GT1, 4, 5 and 6a/6b; parameters: method as in PMID 24107072, PMID 24126581; conditions: cited from earlier work
[2] = system: organic anion transporting polypeptide (OATP) 1B1/3; conditions: cited from earlier work
HCV NS5A [3] = system: HCV NS5A; parameters: method as in PMID 24126581; conditions: L31M and Y93C (in combination with M28V), GT1a; cited from earlier work
cytochrome P450 (CYP) 3A = conditions: cited from earlier work
P-glycoprotein = conditions: cited from earlier work
[4] = system: breast cancer resistance protein; conditions: cited from earlier work
[5] = cited from earlier work; for change in plasma concentrations on co-administration with JNJ-56914845: healthy volunteers, not considered clinically relevant
[6] = parameters: species or system human; conditions: in vivo
Description: Plasma pharmacokinetic samples for simeprevir, TMC647055, ritonavir and JNJ-56914845 were collected over 24 h (pre-dose, 1, 2, 3, 4, 5, 6, 8, 10, 12 and 24 h post-dose) at Week 4 from all patients and assayed using validated liquid chromatography-tandem mass spectrometry methods with lower limits of quantification for simeprevir, TMC647055, ritonavir and JNJ-56914845 of 5.0, 5.0, 2.0 and 1.0 ng/mL, respectively (data on file).
No formal sample size calculations were performed as this was a proof-of-concept study. For each efficacy endpoint, the proportion of patients was summarised descriptively together with a 95% confidence interval by treatment group and population. The change in log10 HCV RNA from baseline at all time points was calculated using descriptive statistics. Pharmacokinetic parameters were calculated using non-compartmental analysis (Phoenix WinNonlin® 6.2.1). All safety and tolerability data were summarised descriptively.

HCV NS5B = assay: Population-based sequencing at time of failure, NS5B region; parameters: species or system hepatitis C virus; conditions: patients with virologic failure
[7] = system: HCV replicon with NS5B NNI-1 pocket polymorphisms; assay: In vitro susceptibility of site-directed mutant replicons (baseline NS5B polymorphisms); assay type: cell-based, hepatitis C virus; conditions: NS5B polymorphisms observed at baseline (positions 37, 392, 424, 425, 494, 499) with site-directed mutagenesis data
From the text: NS5B polymorphisms were detected at baseline at the non-nucleoside inhibitor (NNI)-1 binding pocket positions 37, 392, 424, 425, 494 and/or 499 across all panels.

HCV GT1, 3, 4, 5 and 6 = system: HCV GT1, 3, 4, 5 and 6; parameters: method as in PMID 24144360; conditions: cited from earlier work
HCV NS3/4A = assay: Population-based sequencing at time of failure, NS3/4A region; parameters: species or system hepatitis C virus

SMILES: COC(=O)N[C@H](C(=O)N1CCC[C@H]1c1ncc(-c2ccc(-c3ccc(-c4cnc([C@@H]5CC6(CN5C(=O)[C@@H](NC(=O)OC)C(C)C)OCCO6)[nH]4)cc3)cc2)[nH]1)C(C)C [JNJ-56914845]
emerging RAVs at time of failure (HCV NS5A [1]): NS5A positions 30 and/or 31 | in vitro antiviral activity (HCV GT1, 4, 5 and 6a/6b): in vitro antiviral activity against HCV GT1, 4, 5 and 6a/6b | OATP1B1/3 inhibition ([2]; in vitro, ref data on file): inhibits | baseline NS5A polymorphisms and in vitro resistance (HCV NS5A [3]): associated with in vitro resistance | CYP3A substrate status (cytochrome P450 (CYP) 3A): substrate | P-glycoprotein inhibition (P-glycoprotein): inhibits | P-glycoprotein substrate status (P-glycoprotein): substrate | breast cancer resistance protein inhibition [4]: inhibits | increase in exposure (AUC0–24h) on co-administration of simeprevir ([5]; human, in vivo): 2.6 fold

SMILES: COc1ccc2c(c1)C=C1Cn3c-2c(C2CCCCC2)c2ccc(cc23)C(=O)NS(=O)(=O)N(C)CCOCCN(C)C1=O [TMC647055]
differences in pharmacokinetics based on ribavirin use [6]: No differences | increase in exposure with dose [6]: more than dose-proportional increase | resistance-associated variants (RAVs) observed at failure (HCV NS5B): NS5B position 495 (mainly P495L) | fold change in 50 % effective concentration compared to wild-type replicon [7]: < 2 | in vitro antiviral activity (HCV GT1, 3, 4, 5 and 6): in vitro antiviral activity against HCV GT1, 3, 4, 5 and 6 | change in plasma concentrations on co-administration with JNJ-56914845 [5]: small increases

differences in pharmacokinetics based on ribavirin use [6]: No differences
SMILES: CC(C)c1nc(CN(C)C(=O)N[C@H](C(=O)N[C@@H](Cc2ccccc2)C[C@H](O)[C@H](Cc2ccccc2)NC(=O)OCc2cncs2)C(C)C)cs1 [ritonavir]

SMILES: COc1ccc2c(O[C@@H]3C[C@H]4C(=O)N[C@]5(C(=O)NS(=O)(=O)C6CC6)C[C@H]5/C=C\CCCCN(C)C(=O)[C@@H]4C3)cc(-c3nc(C(C)C)cs3)nc2c1C [simeprevir]
differences in pharmacokinetics based on ribavirin use [6]: No differences | exposure compared with historical data for simeprevir 150 mg once daily [6]: within the range observed in historical data | emerging NS3 mutations at time of failure (HCV NS3/4A; GT1a-infected patients with virologic failure (R155K alone or with Q80R; R155S)): NS3 position 155 | emerging NS3 mutation at time of failure (HCV NS3/4A; most GT1b-infected patients with virologic failure): NS3 position 168 | OATP1B1/3 inhibition [2]: inhibits | CYP3A substrate / inhibitor status (cytochrome P450 (CYP) 3A): substrate and mild inhibitor (intestinal only) | P-glycoprotein inhibition (P-glycoprotein): inhibits | change in plasma concentrations on co-administration with JNJ-56914845 [5]: small increases
